Test results: PubChem BioAssay (NCI)
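48-hour exposure; five concentrations; linearly interpolated endpoints. GI50 is the concentration that inhibits growth by half. TGI: total growth inhibition.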

What was measured:
Assay in all cases: inhibition of tumour cell growth, NCI panel, 48 h
[1] = test system: CCRF-CEM leukemia
[2] = test system: NCI-H522 lung
[3] = test system: COLO 205 colon
[4] = test system: SNB-75 CNS
[5] = test system: U251 CNS
[6] = test system: A498 renal
[7] = test system: A549 NSCLC
[8] = test system: OVCAR-8 ovarian
[9] = test system: MOLT-4 leukemia
[10] = test system: SF-295 CNS
[11] = test system: HCT-116 colon
[12] = test system: KM12 colon
[13] = test system: TK-10 renal
[14] = test system: UACC-62 melanoma
[15] = test system: MCF7 breast
[16] = test system: MDA-MB-435
[17] = test system: EKVX NSCLC
[18] = test system: PC-3 prostate
[19] = test system: UACC-257 melanoma
[20] = test system: IGROV1 ovarian
[21] = test system: OVCAR-4 ovarian
[22] = test system: SK-MEL-5 melanoma
[23] = test system: SK-MEL-28 melanoma
[24] = test system: SK-MEL-2 melanoma
[25] = test system: MALME-3M melanoma
[26] = test system: SN12C renal
[27] = test system: SR leukemia
[28] = test system: NCI/ADR-RES ovarian

## COc1ccc(/C=C2\CN(C(=O)CCN3CCC(=NO)CC3)C/C(=C\c3ccc(OC)cc3)C2=O)cc1
[1]
  GI50: 3.05 µM
  TGI: 18.9 µM
[2]
  GI50: 2.17 µM
  TGI: 5.5 µM
[3]
  GI50: 2.04 µM
  TGI: 4.11 µM
[4]
  GI50: 2.14 µM
  TGI: 9.33 µM
[5]
  GI50: 1.74 µM
  TGI: 3.47 µM
[6]
  GI50: 1.6 µM
  TGI: 3.2 µM
[7]
  GI50: 3.28 µM
  TGI: 11.7 µM
[8]
  GI50: 3.22 µM
  TGI: 16 µM
[9]
  GI50: 2.95 µM
  TGI: 26.9 µM
[10]
  GI50: 2.77 µM
  TGI: 7.69 µM
[11]
  GI50: 1.74 µM
  TGI: 3.23 µM
[12]
  GI50: 1.74 µM
  TGI: 3.71 µM
[13]
  GI50: 2.86 µM
  TGI: 10.4 µM
[14]
  GI50: 1.89 µM
  TGI: 4.38 µM
[15]
  GI50: 0.619 µM
  TGI: 4.86 µM
[16]
  GI50: 1.76 µM
  TGI: 3.49 µM
[17]
  GI50: 4.04 µM
  TGI: 17.6 µM
[18]
  GI50: 2 µM
  TGI: 4.74 µM
[19]
  GI50: 2.65 µM
  TGI: 7.57 µM
[20]
  GI50: 1.94 µM
  TGI: 4.36 µM
[21]
  GI50: 3.34 µM
  TGI: 17.7 µM
[22]
  GI50: 1.82 µM
  TGI: 3.29 µM
[23]
  GI50: 2 µM
  TGI: 4.17 µM
[24]
  GI50: 11.7 µM
  TGI: 30.4 µM
[25]
  GI50: 2.5 µM
  TGI: 7.49 µM
[26]
  GI50: 2.27 µM
  TGI: 5.92 µM
[27]
  GI50: 0.616 µM
  TGI: 29.1 µM
[28]
  GI50: 3.72 µM
  TGI: 20.8 µM
